Experiments:
[1] = target: T1, TYK2-JH2 (aa 575-869, in-house) protein (Homo sapiens, UniProt P29597); assay: TYK2-JH2 biochemical assay (HTRF, blocking of TYK2-JH2 protein with its probe); type: binding; settings: for IC50: HTRF, 0.2 nM recombinant TYK2-JH2, Probe 1; for Biochemical assay Selectivity fold (TYK2/JAK1): TYK2-JH2 vs JAK1-JH2 biochemical IC50
T1 construct: TYK2-JH2 (aa 575-869, in-house) protein; made in house
Protocol: Assay A: TYK2-JH2 Biochemical Assay
Compounds disclosed herein were tested for blocking of TYK2-JH2 (aa 575-869, in-house) protein with its probe in an assay based on Homogeneous Time Resolved Fluorescence.
Compound dilution is done according to the following protocol: (1) Prepare 500× compounds solution in DMSO from 500 uM by 5-fold dilution, total 10 doses were included; (2) Prepare 10× compounds solution in an assay buffer containing 20 mM HEPES, pH 7.5, 10 mM MgCl2, 0.005% BSA, 2 mM DTT, 0.015% Brij-35 by transferring 1 μl serial 500× stock solution into 49 μl assay buffer. 4 μl of 0.2 nM recombinant TYK2-JH2 protein was pre-incubated with 1 μl of 10×serial dilution of compounds at room temperature for 0.5 hour. Then 5 μl of 10 nM in-house Probe 1 (6-((3,5-dimethylphenyl)amino)-8-((4,26-dioxo-30-((3aS,4S,6aR)-2-oxohexahydro-1H-thieno[3,4-d]imidazol-4-yl)-7,10,13,16,19,22-hexaoxa-3,25-diazatriacontyl)amino)imidazo[1,2-b]pyridazine-3-carboxamide, KD=10 nM), 5 μl Mab Anti-6His Tb cryptate Gold (Cat: 61HI2TLB, Cisbio Bioassays) and Streptavidin-XL665(Cat: 610SAXLB, Cisobio Bioassays) mixture were added to plate and further incubated at room temperature for 1 hour. The HTRF signals (ex337 nm, em620 nm/665 nm) were read on BMG PHERAstar FS instrument. The inhibition percentage of TYK2 interaction with its probe in presence of increasing concentrations of compounds was calculated based on the ratio of fluorescence at […]. The IC50 for each compound was derived from fitting the data to the four-parameter logistic equation by Dotmatics.

[2] = target: T2, JAK1-JH2 protein (aa 561-860, in-house) (Homo sapiens, UniProt P23458); assay: JAK1-JH2 biochemical assay (HTRF, blocking of JAK1-JH2 protein with its probe); type: binding; settings: 1.17 nM recombinant JAK1-JH2, Probe 2
T2 construct: JAK1-JH2 protein (aa 561-860, in-house); made in house
Protocol: Assay B: JAK1-JH2 Biochemical Assay
Compounds disclosed herein were tested for blocking of JAK1-JH2 protein (aa 561-860, in-house) with its probe in an assay based on Homogeneous Time Resolved Fluorescence. Compound dilution is done according to the following protocol: (1) Prepare 500× compounds solution in DMSO from 500 uM by 5-fold dilution, total 10 doses were included; (2) Prepare 10× compounds solution in an assay buffer containing 20 mM HEPES, pH 7.5, 10 mM MgCl2, 0.005% BSA, 2 mM DTT, 0.015% Brij-35 by transferring 1 μl serial 500× stock solution into 49 μl assay buffer. 4 μL of 1.17 nM recombinant JAK1-JH2 protein was pre-incubated with 1 μl of 10×serial dilution of compounds at room temperature for 0.5 hour. […] The HTRF signals (ex337 nm, em620 nm/665 nm) were read on BMG PHERAstar FS instrument. The inhibition percentage of JAK1 interaction with its probe in presence of increasing concentrations of compounds was calculated based on the ratio of fluorescence at 615 nm to that at 665 nm. The IC50 for each compound was derived from fitting the data to the four-parameter logistic equation by Dotmatics.

[3] = system: JAK1/p-STAT3(Tyr705) activated by IL-6 in TF-1 cell line; assay: IL-6-JAK1/p-STAT3(Tyr705) inhibition cellular assay; type: cell-based; settings: Homo sapiens, 0.5 h; TF-1 cells, IL-6 50 ng/ml, 30 min; read-out: Cellular assay pSTAT3/IL-6 IC50
Description: Assay D: IL-6-JAK1/p-STAT3(Tyr705) Inhibition IC50 Cellular Assay
To evaluate the inhibition effect of compounds disclosed herein on JAK1/p-STAT3(Tyr705) activated by IL-6 in TF-1 cell line, TF-1 cells were collected and washed 3 times by DPBS and resuspended in RPMI-1640 (phenol red free, Gibco, Cat #11835-030) with 0.1% FBS (Gibco, Cat #10099, Lot #1891605), without GM-CSF(R&D systems,Cat #215-GM-050), starved overnight. Cells were collected and resuspended in 1640 medium (phenol red free, Gibco, Cat #11835-030) with 0.1% BSA, and 12.5 μl/10×10^4/well cell suspension were seeded to the 96-well plate (Corning, Cat #3799). Then cells were treated with compounds diluted in 0.2% DMSO 1640 medium, at 37° C., 1 h. Dilution is done according to the following protocol: (1) make 500× compounds solution in DMSO from 5 mM by 4-fold dilution, total 8 doses were included; (3) make 2× compounds solution in assay medium by transferring 0.5 μl serial 500× stock solution into 125 μl assay medium; (4) 15 μl of 2× solution is added to cells and incubate at 37° C. for 1 h, the final compound conc. is 10000,2500,625,156.25,39,9.8,2.4 and 0.61 nM, respectively. After 1 h, cells were treated with 2.5 μl medium containing IL-6 at 37° C. (R&D systems, Cat #206-IL-010, final conc.50 ng/ml), 30 min. Following cells were lysed with 10 μl lysis buffer at RT, shaking on shaker for 1 h. 16 μL of cell lysate were transferred to a PE 384-well HTRF detection plate, and 4 μL of pre-mixed HTRF antibodies were added to each well. Covered the plate with a plate sealer, span 1000 rpm for 1 min, mix, Incubated overnight at room temperature. Read on BMG PheraStar with HTRF protocol (337 nm-665 nm-620 nm). IC 50 values were calculated by fitting dependent data to the four-parameter logistic model using dotmatics software. The assay was performed by using HTRF Phospho-STAT3(Tyr705) Cellular Assay Kit (Cisbio, Cat #62AT3PEG).

[4] = system: JAK2, TYK2/p-STAT4 (Tyr693) activated by IL-12 in NK-92 cell line; assay: IL-12-JAK2, TYK2/p-STAT4 (Tyr693) inhibition cellular assay; type: cell-based; settings: for IC50: NK92, 0.5 h, NK-92 cells, IL-12 40 ng/ml, 30 min, read-out: Cellular assay pSTAT4/IL-12 IC50; for Cellular assay Selectivity fold (TYK2/JAK1): pSTAT4/IL-12 vs pSTAT3/IL-6 cellular IC50
Description: Assay C: IL-12-JAK2, TYK2/p-STAT4 (Tyr693) Inhibition IC50 Cellular Assay
To evaluate the inhibition effect of compounds disclosed herein on JAK2, TYK2/p-STAT4 (Tyr693) activated by IL-12 in NK-92 cell line, NK-92 cells were collected and washed 3 times by DPBS and resuspended in MEM-α(GIBCO,Cat #12561056) with 10% FBS (Gibco, Cat #10099, Lot #1891605), without IL-2 (R&D systems,Cat #202-IL), starved overnight. Cells were collected and resuspended in 1640 medium (phenol red free, Gibco, Cat #11835-030) with 0.1% BSA, and 12.5 μl/5×10^4/well cell suspension were seeded to the 96-well plate (Corning, Cat #3799). Then cells were treated with compounds diluted in 0.2% DMSO 1640 medium, at 37° C., 1 h. Dilution is done according to the following protocol: (1) make 500× compounds solution in DMSO from 5 mM by 4-fold dilution, total 8 doses were included; (3) make 2× compounds solution in assay medium by transferring 0.5 μl serial 500× stock solution into 125 μl assay medium; (4) 15 μl of 2× serial solution is added to cells and incubate at 37° C. for 1 h, the final compound conc. is 10000,2500,625,156.25,39,9.8,2.4 and 0.61 nM, respectively. After 1 h, cells were treated with 2.5 μl medium containing IL-12 at 37° C. (R&D systems, Cat #219-IL-005, final conc.40 ng/ml), 30 min. Following cells were lysed with 7.5 μl lysis buffer at RT, shaking on shaker for 1 h. 10 μL of cell lysate were transferred to a PE 384-well Proxiplate detection plate, and 5 μL of pre-mixed Alphascreen beads were added to each well. Covered the plate with a plate sealer, span 1000 rpm for 1 min, mix, Incubated overnight at room temperature. Read on BMG PheraStar with Alphascreen protocol. IC 50 values were calculated by fitting dependent data to the four-parameter logistic model using dotmatics software. The assay was performed by using AlphaLISA SureFire Ultra p-STAT4 (Tyr693) Assay Kit—High Volume (PE, Cat #ALSU-PST4-A-HV).

T2 sequence (P23458 561-860): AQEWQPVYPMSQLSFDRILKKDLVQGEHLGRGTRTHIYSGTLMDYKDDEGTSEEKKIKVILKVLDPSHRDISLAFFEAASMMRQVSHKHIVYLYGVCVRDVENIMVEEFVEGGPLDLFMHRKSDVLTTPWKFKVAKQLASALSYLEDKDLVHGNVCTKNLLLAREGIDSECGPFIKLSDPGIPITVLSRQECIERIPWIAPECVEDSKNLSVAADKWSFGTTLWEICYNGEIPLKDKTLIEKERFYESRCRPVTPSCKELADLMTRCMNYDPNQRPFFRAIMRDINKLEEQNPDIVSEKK
T1 sequence (P29597 575-869): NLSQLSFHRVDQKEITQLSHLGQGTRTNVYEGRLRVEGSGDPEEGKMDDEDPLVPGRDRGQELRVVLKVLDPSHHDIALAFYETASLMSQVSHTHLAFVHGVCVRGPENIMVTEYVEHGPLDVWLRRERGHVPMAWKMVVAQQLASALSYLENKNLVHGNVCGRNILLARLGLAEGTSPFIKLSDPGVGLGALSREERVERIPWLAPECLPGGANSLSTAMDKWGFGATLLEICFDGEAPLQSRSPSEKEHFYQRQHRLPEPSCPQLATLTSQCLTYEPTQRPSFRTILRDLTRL

SMILES	IC50 [1]	Biochemical assay Selectivity fold (TYK2/JAK1) [1]	IC50 [2]	IC50 [3]	IC50 [4]	Cellular assay Selectivity fold (TYK2/JAK1) [4]
CNC(=O)c1nnc(NC(=O)C2CC2)cc1Nc1nc2ccccc2o1 [Example A1, 4-(benzo[d]oxazol-2-ylamino)-6-(cyclopropanecarboxamido)-N-methylpyridazine-3-carboxamide]	456 nM	>22 fold	> 10000 nM	–	–	–
CNC(=O)c1nnc(NC(=O)C2CC2)cc1Nc1nc2ccccc2n1C [Example A2, 6-(cyclopropanecarboxamido)-N-methyl-4-((1-methyl-1H-benzo[d]imidazol-2-yl)amino) pyridazine-3-carboxamide]	34 nM	5 fold	174 nM	–	–	–
CNC(=O)c1nnc(NC(=O)C2CC2)cc1Nc1nc2ccccc2[nH]1 [Example A3, 4-((1H-benzo [d]imidazol-2-yl)amino)-6-(cyclopropane-carboxamido)-N-methyl-pyridazine-3-carboxamide]	1.4 nM	2.6 fold	3.7 nM	–	–	–
CNC(=O)c1nnc(NC(=O)C2CC2)cc1Nc1nc2ccccn2n1 [Example A4, 4-([1,2,4]triazolo[1,5-a]pyridin-2-ylamino)-6-(cyclopropane-carboxamido)-N-methyl-pyridazine-3-carboxamide]	0.16 nM	8 fold	1.3 nM	2.41 µM	104 nM	23 fold
CNC(=O)c1nnc(NC(=O)C2CC2)cc1Nc1nc2ccc(P(C)(C)=O)cn2n1 [Example A5, 6-(cyclopropanecarboxamido)-4-((6-(dimethylphosphoryl)-[1,2,4]triazolo[1,5-a]pyridin-2-yl)amino)-N-methyl-pyridazine-3-carboxamide]	0.56 nM	23 fold	13 nM	> 10 µM	> 10000 nM	–
CNC(=O)c1nnc(NC(=O)C2CC2)cc1Nc1nc2cc(OC)c(N3CCC3)cn2n1 [Example B1, 4-((6-(azetidin-1-yl)-7-methoxy-[1,2,4]triazolo[1,5-a]pyridin-2-yl)amino)-6-(cyclopropanecarboxamido)-N-methylpyridazine-3-carboxamide]	0.936 nM	2 fold	2.03 nM	> 10 µM	3530 nM	>3 fold
CNC(=O)c1nnc(NC(=O)C2CC2)cc1Nc1nc2ccc(OC3CN(C(=O)OC(C)(C)C)C3)cn2n1 [Example C1, tert-butyl 3-((2-((6-(cyclopropanecarboxamido)-3-(methylcarbamoyl)pyridazin-4-yl)amino)-[1,2,4]triazolo[1,5-a]pyridin-6-yl)oxy)azetidine-1-carboxylate]	0.1 nM	13 fold	1.3 nM	–	–	–
CNC(=O)c1nnc(NC(=O)C2CC2)cc1Nc1nc2ccc(OC3CNC3)cn2n1 [Example C2, 4-((6-(azetidin-3-yloxy)-[1,2,4]triazolo[1,5-a]pyridin-2-yl)amino)-6-(cyclopropanecarboxamido)-N-methylpyridazine-3-carboxamide]	0.14 nM	9 fold	1.2 nM	–	–	–
CNC(=O)c1nnc(NC(=O)C2CC2)cc1Nc1nc2ccc(OC3CN(S(C)(=O)=O)C3)cn2n1 [Example C3, 6-(cyclopropanecarboxamido)-N-methyl-4-((6-((1-(methylsulfonyl)azetidin-3-yl)oxy)-[1,2,4]triazolo[1,5-a]pyridin-2-yl)amino)pyridazine-3-carboxamide]	0.08 nM	15 fold	1.2 nM	> 10 µM	68.8 nM	>145 fold
CNC(=O)c1nnc(NC(=O)C2CC2)cc1Nc1nc2ccc(N3CCC(N4CCC4)CC3)cn2n1 [Example E11, 4-((6-(4-(azetidin-1-yl)piperidin-1-yl)-[1,2,4]triazolo[1,5-a]pyridin-2-yl)amino)-6-(cyclopropanecarbox-amido)-N-methyl-pyridazine-3-carboxamide]	0.18 nM	32 fold	5.8 nM	–	–	–

— patent US12606556B2, “TYK-2 inhibitor” (BEIGENE, LTD., priority 2020, dated 2026)
